Test results as given in patent US20150366819A1, “COMPOSITIONS AND METHODS FOR TREATING HOOF DISEASES” (AGROCHEM, INC., priority 2008, published 2015).

How the values were obtained:
[1] = tested on: Hydrolyzed Bovine Dry Collagen protein medium; experiment: Cross-linking test: skin (crust) formation on protein medium after spraying
Procedure: Tests were performed in order to obtain a skin (crust) on the protein medium by using a cross-linking agent. Time, temperature and skim formation were monitored. Tests were performed at 40° F.—both medium and solutions were cooled to test temperature. Test medium was prepared by mixing a solution containing 85% D.I. water and 15% Hydrolyzed Bovine Dry Collagen (purchased from Milligan & Higgens). Approx 4 oz of the preparation was put into Petri dishes, placed in a refrigerator for thirty minutes before reacclimatizing at room temperature, ready for testing. Subsequently, the various test solutions were poured into 4 oz bottles with spray nozzles and 10 ml of solution was sprayed onto the medium in the petri dishes from a distance of 6 inches, timed and viewed at 15 minute intervals and the contents of the petri dish was then scored for skin formation. The time and extent of skin formation was noted and transposed to graphs (see FIGS. 1-4).
A second series of tests were run using Egg Albumin Powder (purchased from J.T. Baker) as the protein medium, prepared by mixing 85% D.I. water and 15% Egg Albumin Powder. Both test produced identical results.
Lab testing was performed to assess cross-linking ability of various compositions. […]

[2] = tested on: digital dermatitis lesions; experiment: Actual field application on digital dermatitis lesions (scab formation); assay type: in vivo, cow; conditions: glutaraldehyde at less than 5%, applied on digital dermatitis lesions

SMILES | cross-linking of test samples (in words) ([1]; glutaraldehyde reduced to less than 5%, FIG. 2) | facilitating adequate scab formation in an acceptable time span [2] | cross-linking effects, maximum extent of skin formation ([1]; glyoxal alone, scored from 0 to 10, FIG. 3)
O=CCCCC=O [glutaraldehyde] | significantly less cross-linking | ineffective | –
O=CC=O [glyoxal] | – | – | 2.5
